Columns and labels:
Assay type in all cases: cell-based
Human IDO-1 [1] = biological target: T1, Human IDO-1 (Homo sapiens, UniProt P14902); assay: HEK Human IDO-1 cells, Basal N-formyl-kynurenine readout; conditions: Primary CRC, read-out: Basal_N-formyl-kyn IDO1 Rel IC50
Method: (§1) Compounds described in the Examples above were tested for inhibition of IDO activity with IDO Kynurenine Assay with Human ID01/HEK293 Cells.
(§2) Human ID01/HEK293 cells were seeded at 10,000 cells per 50 μL per well with RP Ml/phenol red free media containing 10% FBS in a 384-well black wall clear bottom tissue culture plate (Matrix Technologies LLC). 125 nL of certain concentration of compound was then added to each well using ECHO liquid handling systems. The cells were incubated for 20 hours in 37° C. incubator with 5% CO2.

Human ID01/HEK293 cells = assay: HEK Human IDO-1 cells, Basal Viability; conditions: Primary CRC, HEK Human IDO-1 cell viability, read-out: Basal_Viability Rel IC50
Method: as §2

Human IDO-1 [2] = biological target: T1, Human IDO-1; assay: IDO Kynurenine Assay with Human IDO1/HEK293 cells (Basal L-Kynurenine readout); conditions: HEK Human IDO-1; for inhibition at 10 µM: HEK293, Primary SP, 10 μM compound, read-out: Basal_L-Kynurenine (IDO1 % inhib @ 10 μM); for IC50: Primary CRC, read-out: Basal_L-Kynurenine IDO1 Rel IC50
Method: as §1, §2
The compound treatments were stopped by adding trichloroacetic acid (Sigma-Aldrich) to a final concentration at 0.2%. The cell plate was further incubated at 50° C. for 30 minute. The equal volume supernatant (20 μL) and 0.2% (w/v) Ehrlich reagent (4-dimethylaminobenzaldehyde, Sigma-Aldrich) in glacial acetic acid were mixed in a new clear bottom 384-well plate. This plate was then incubated at room temperature for 30 minute. The absorbance at 490 nm was measured on Envision plate reader.

T1 sequence (P14902 whole entry): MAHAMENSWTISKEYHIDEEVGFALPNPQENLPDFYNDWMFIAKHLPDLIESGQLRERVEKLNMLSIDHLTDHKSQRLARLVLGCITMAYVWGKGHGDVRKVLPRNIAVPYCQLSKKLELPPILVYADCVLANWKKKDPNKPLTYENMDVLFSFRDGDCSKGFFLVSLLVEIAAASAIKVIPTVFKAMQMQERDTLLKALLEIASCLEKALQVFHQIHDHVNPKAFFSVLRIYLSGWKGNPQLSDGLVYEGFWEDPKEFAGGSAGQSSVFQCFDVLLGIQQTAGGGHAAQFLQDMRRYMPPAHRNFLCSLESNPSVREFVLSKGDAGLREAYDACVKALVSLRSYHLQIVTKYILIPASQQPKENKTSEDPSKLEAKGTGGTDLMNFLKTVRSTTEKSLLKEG

Row | Compound | IC50 (Human IDO-1 [1]) [µM] | IC50 (Human ID01/HEK293 cells) [µM] | inhibition at 10 µM (Human IDO-1 [2]) [%] | IC50 (Human IDO-1 [2]) [µM]
1 | CCNC(=O)Nc1cccc(CN2CC=C(c3cccc(N4CCOCC4)n3)CC2)c1 [Example 1, 1-Ethyl-3-[3-(6-morpholin-4-yl-3′,6′-dihydro-2′H-[2,4′]bipyridinyl-1′-ylmethyl)phenyl]urea] | < 2 | > 50 | > 90 | < 2
2 | O=C(Nc1cccc(CN2CC=C(c3cccc(N4CCOCC4)n3)CC2)c1)NC1CCCCC1 [Example 2, 1-Cyclohexyl-3-[3-(6-morpholin-4-yl-3′,6′-dihydro-2′H-[2,4′]bipyridinyl-1′-ylmethyl)-phenyl]-urea] | < 2 | > 50 | > 90 | < 2
3 | CCNC(=O)Nc1cccc(CN2CC=C(c3cccc(N4CCCCC4)n3)CC2)c1 [Example 4, 1-Ethyl-3-[3-(6-piperidine-1-yl-3′,6′-dihydro-2′H-[2,4′]bipyridinyl-1′-ylmethyl)-phenyl]-urea] | < 2 | > 50 | > 90 | < 2
4 | O=C(Nc1cccc(CN2CC=C(c3cccc(N4CCCCC4)n3)CC2)c1)NC1CCCCC1 [Example 5, 1-Cyclohexyl-3-[3-(6-piperidine-1-yl-3′,6′-dihydro-2′H-[2,4′]bipyridinyl-1′-ylmethyl)-phenyl]-urea] | < 2 | > 50 | > 90 | < 2
5 | O=C(Nc1cccc(CN2CC=C(c3cccc(N4CCCCC4)n3)CC2)c1)NC1CC1 [Example 6, 1-Cyclopropyl-3-[3-(6-piperidin-1-yl-3′,6′-dihydro-2′H-[2,4′]bipyridinyl-1′-ylmethyl)-phenyl]-urea] | < 2 | > 50 | > 90 | < 2
6 | CCNC(=O)Nc1cccc(CN2CC=C(c3cccc(N4CCN(C)CC4)n3)CC2)c1 [Example 7, 1-Ethyl-3-{3-[6-(4-methyl-piperazin-1-yl)-3′,6′-dihydro-2′H-[2,4′]bipyridinyl-1′-ylmethyl]-phenyl}-urea] | > 2 | > 50 | < 90 | > 2
7 | CN1CCN(c2cccc(C3=CCN(Cc4cccc(NC(=O)NC5CCCCC5)c4)CC3)n2)CC1 [Example 8, 1-Cyclohexyl-3-{3-[6-(4-methyl-piperazin-1-yl)-3′,6′-dihydro-2′H-[2,4′]bipyridinyl-1′-ylmethyl]-phenyl}-urea] | > 2 | > 50 | < 90 | > 2
8 | CN1CCN(c2cccc(C3=CCN(Cc4cccc(NC(=O)NC5CC5)c4)CC3)n2)CC1 [Example 9, 1-Cyclopropyl-3-{3-[6-(4-methyl-piperazin-1-yl)-3′,6′-dihydro-2′H-[2,4′]bipyridinyl-1′-ylmethyl]-phenyl}-urea] | > 2 | > 50 | < 90 | > 2

Source: patent US10858351B2, “Substituted tetrahydropyridine derivatives as IDO-1 inhibitors and uses thereof” (Alberta Research Chemicals Inc., priority 2017, dated 2020)
